Data on 2 molecules can be found in US12419892B2, “Pharmaceutical compositions comprising nilotinib” (XSPRAY PHARMA AB, priority 2023, dated 2025).

For series [1] the following is noted: cited from earlier work.
For series [2] the following is noted: literature (Li, Singamsetti, Puppala); cited from earlier work.
The nature of series [3]: Genotoxicity classification of Nilotinib impurity A. The following applies: not disclosed. An excerpt: Regulatory agencies, such as the FDA and the European Medicines Agency (EMA), have specific guidelines and regulations for assessing and managing the risks associated with genotoxic compounds, particularly in the context of pharmaceuticals and chemical safety.

Regarding `O=C1O[C@H]([C@@H](O)CO)C(O)=C1O` [Ascorbic acid, ascorbic acid], in series [1], the pKa entry was “about 4.2”.

In the case of `Cc1cn(-c2cc(N)cc(C(F)(F)F)c2)cn1` [Nilotinib impurity A, 3-(4-methylimidazol-1-yl)-5-(trifluoromethyl) aniline], in series [2], the genotoxicity classification entry was “potentially genotoxic or mutagenic”. The “genotoxicity, internal evaluations” value in series [3] is on record as “may not be genotoxic”.
